Reference: ChEMBL document CHEMBL4354883, “Design, Synthesis, and Biological Evaluation of HSP90 Inhibitor-SN38 Conjugates for Targeted Drug Accumulation” (J Med Chem, 2020)
Calls of active or inactive are those of the source. The calls are words filed in the database; no cut-off is given here.

Legend:
[1] = Drug uptake in human A549 cells assessed as endocytosis-mediated total cellular drug internalization at 5 uM after 12 hrs by LC-MS/MS analysis relative to irinotecan; format: ADME, cell-based; conditions: a549, 12 h
A549 [2] = assay: Ratio of prodrug release in human A549 cells assessed as increase in 7-ethyl-10-hydroxycamptothecin level at 5 uM after 12 hrs by LC-MS/MS analysis to prodrug release in human A549 cells assessed as increase in 7-ethyl-10-hydroxycamptothecin level at 5 uM after 1 hr by LC-MS/MS analysis; format: ADME, cell-based; conditions: a549, 5 µM
A549 [3] = assay: Downregulation of TOP1 expression in human A549 cells after 24 hrs by Western blot analysis; format: functional, cell-based
[4] = Drug uptake in human A549 cells assessed as blue shift in absorption spectrum at 5 uM by UV-visible absorption spectral analysis; format: ADME, cell-based; conditions: a549, 5 µM
[5] = Half life in human liver microsomes at 1 uM preincubated for 5 mins followed by NADPH addition and measured up to 360 mins by LC-MS/MS analysis; format: ADME, Microsome
[6] = Half life in mouse plasma at 25 uM by HPLC analysis; format: ADME, cell-free
[7] = Half life of compound in PBS buffer at pH 7.4 at 50 uM by HPLC analysis; format: physicochemical
CAPAN-1 [8] = assay: Antiproliferative activity against human Capan1 cells assessed as reduction in cell viability after 72 hrs by SRB assay; format: functional, cell-based; conditions: CAPAN-1, 72 h
[9] = AUC(0 to infinity) in BALB/c mouse at 50 mg/kg, iv after 5 to 24 hrs by LC-MS/MS analysis; format: ADME, organism-based; parameters: dose 50 mg/kg, route intravenous, time infinity; conditions: in vivo
[10] = Drug uptake in human A549 cells assessed as maximum emission peaks at 430 nm at 5 uM by fluorescence emission spectral analysis; format: ADME, cell-based; conditions: a549, 5 µM
MIA PaCa-2 = assay: Antiproliferative activity against human MIAPaCa2 cells assessed as reduction in cell viability after 72 hrs by SRB assay; format: functional, cell-based; conditions: MIA PaCa-2, 72 h
HCT-116 [11] = assay: Downregulation of TOP1 expression in human HCT116 cells after 24 hrs by Western blot analysis; format: functional, cell-based
[12] = Apparent volume of distribution at steady state in BALB/c mouse at 50 mg/kg, iv after 5 to 24 hrs by LC-MS/MS analysis; format: ADME, organism-based; conditions: in vivo, read-out: Vdss(app)
[13] = Drug uptake in human A549 cells assessed as blue fluorescence at 5 uM after 12 hrs by confocal laser scanning microscopic analysis; format: ADME, cell-based; conditions: a549, 12 h
[14] = Half life in BALB/c mouse at 50 mg/kg, iv after 5 to 24 hrs by LC-MS/MS analysis; format: ADME, organism-based; conditions: in vivo
A549 [15] = assay: Antiproliferative activity against human A549 cells assessed as reduction in cell viability after 72 hrs by SRB assay; format: functional, cell-based; conditions: A549, 72 h
Heat shock protein HSP90 [16] = target: T1, Heat shock protein HSP90 (Homo sapiens, UniProt P07900+P08238); assay: Inhibition of HSP90 in human HCT116 cells assessed as upregulation of HSP70 expression at 0.04 to 5 uM after 24 hrs by Western blot analysis; format: cell-based
HCT-116 [17] = assay: Induction of cell cycle arrest in human HCT116 cells assessed as accumulation at G2/M phase after 24 hrs by RNase A/PI-staining based flow cytometric analysis; format: functional
Heat shock protein HSP90 [18] = target: T1, Heat shock protein HSP90; assay: Drug uptake in human A549 cells assessed as eHSP90-mediated drug internalization by measuring blue fluorescence in PBS solution at 5 uM after 1 to 12 hrs by confocal laser scanning microscopic analysis; format: ADME, cell-based; conditions: a549, 5 µM, TDE = time-dependent effect
Heat shock protein HSP90 [19] = target: T1, Heat shock protein HSP90; assay: Inhibition of HSP90 in human HCT116 cells assessed as downregulation of AKT protein expression after 24 hrs by Western blot analysis; format: cell-based
L02 = assay: Cytotoxicity agains human HL7702 cells assessed as reduction in cell viability after 72 hrs by SRB assay; format: cell-based; conditions: L02, 72 h
Heat shock protein HSP90 [20] = target: T1, Heat shock protein HSP90; assay: Inhibition of HSP90 in human A549 cells assessed as upregulation of HSP70 expression at 0.04 to 5 uM after 24 hrs by Western blot analysis; format: cell-based
[21] = Drug uptake in human A549 cells assessed as endocytosis-mediated total cellular drug internalization at 5 uM after 12 hrs by LC-MS/MS analysis relative to SN38; format: ADME, cell-based; conditions: a549, 12 h
[22] = Half life in human plasma at 25 uM by HPLC analysis; format: ADME, cell-free
[23] = target: T2, DNA topoisomerase 1 (Homo sapiens) (UniProt P11387); assay: Inhibition of topoisomerase 1 in human HCT116 cells assessed as increase in phosphorylated KAP1 expression after 24 hrs by Western blot analysis; format: cell-based
T2 sequence (whole entry): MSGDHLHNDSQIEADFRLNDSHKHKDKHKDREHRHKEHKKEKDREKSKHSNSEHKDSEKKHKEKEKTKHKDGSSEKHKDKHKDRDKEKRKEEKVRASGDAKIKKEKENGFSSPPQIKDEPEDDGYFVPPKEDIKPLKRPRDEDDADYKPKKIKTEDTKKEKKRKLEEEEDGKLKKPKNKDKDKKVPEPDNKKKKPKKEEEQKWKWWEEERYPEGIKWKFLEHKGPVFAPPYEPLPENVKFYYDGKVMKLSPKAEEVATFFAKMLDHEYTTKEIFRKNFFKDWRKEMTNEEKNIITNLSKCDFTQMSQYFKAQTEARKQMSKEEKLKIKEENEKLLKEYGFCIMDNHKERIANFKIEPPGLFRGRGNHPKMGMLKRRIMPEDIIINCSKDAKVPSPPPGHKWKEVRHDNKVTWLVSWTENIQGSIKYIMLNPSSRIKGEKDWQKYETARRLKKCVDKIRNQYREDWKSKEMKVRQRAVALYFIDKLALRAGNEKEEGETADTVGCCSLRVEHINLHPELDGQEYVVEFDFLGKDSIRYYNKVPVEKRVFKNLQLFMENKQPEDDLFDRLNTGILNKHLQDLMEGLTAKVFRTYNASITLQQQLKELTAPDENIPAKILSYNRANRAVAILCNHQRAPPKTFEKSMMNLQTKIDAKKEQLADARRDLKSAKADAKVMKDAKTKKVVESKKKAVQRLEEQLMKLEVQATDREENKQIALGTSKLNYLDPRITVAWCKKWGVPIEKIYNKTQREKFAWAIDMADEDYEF

[24] = Clearance in BALB/c mouse at 50 mg/kg, iv after 5 to 24 hrs by LC-MS/MS analysis; format: ADME, organism-based; conditions: in vivo
[25] = Half life of compound in PBS buffer at pH 6.0 at 50 uM by HPLC analysis; format: physicochemical
[26] = Toxicity in mouse xenografted with human HCT116 cells assessed as body weight loss at 50 mg/kg, iv for 5 consecutive days per week and measured every 3 to 4 days up to 14 days relative to control; format: organism-based; conditions: in vivo
[27] = Metabolic stability in human liver microsomes assessed as compound remaining at 1 uM preincubated for 5 mins followed by NADPH addition and measured after 60 mins by LC-MS/MS analysis; format: ADME, Microsome; conditions: read-out: Stability
[28] = target: Heat shock protein HSP 90-alpha (Homo sapiens, UniProt P07900); assay: biochemical
Description: Inhibition of recombinant human full length HSP90 alpha expressed in Escherichia coli cells after 1 hr by fluorescence polarization assay

HCT-116 [29] = assay: Antiproliferative activity against human HCT116 cells assessed as reduction in cell viability after 72 hrs by SRB assay; format: functional, cell-based; conditions: HCT-116, 72 h
CAPAN-1 [30] = assay: Induction of cell cycle arrest in human Capan1 cells assessed as accumulation at G2/M phase after 24 hrs by RNase A/PI-staining based flow cytometric analysis; format: functional
Heat shock protein HSP90 [31] = target: T1, Heat shock protein HSP90; assay: Inhibition of HSP90 in human A549 cells assessed as downregulation of AKT protein expression after 24 hrs by Western blot analysis; format: cell-based
A549 [32] = assay: Induction of cell cycle arrest in human A549 cells assessed as accumulation at G2/M phase after 24 hrs by RNase A/PI-staining based flow cytometric analysis; format: functional
[33] = target: T2, DNA topoisomerase 1 (Homo sapiens); assay: Inhibition of topoisomerase 1 in human A549 cells assessed as increase in phosphorylated KAP1 expression after 24 hrs by Western blot analysis; format: cell-based
[34] = Intrinsic clearance in human liver microsomes at 1 uM preincubated for 5 mins followed by NADPH addition and measured up to 360 mins by LC-MS/MS analysis; format: ADME, Microsome; conditions: 6 h
[35] = Drug uptake in human A549 cells assessed as eHSP90-mediated total cellular drug internalization at 5 uM after 12 hrs by LC-MS/MS analysis; format: ADME, cell-based; conditions: a549, 12 h

For `CCc1c2c(nc3ccc(O)cc13)-c1cc3c(c(=O)n1C2)COC(=O)[C@@]3(CC)OC(=O)CCNC(=O)c1noc(-c2cc(C(C)C)c(O)cc2O)c1-c1ccc(CN2CCOCC2)cc1`, the fold change (FC) [1] was 2.8 to 3.8, the Ratio (A549 [2]) was 4.3 and the TOP1 downregulation (A549 [3]) was “Dose-dependent effect”. The Drug uptake [4] was “Active”, the half-life at 1 µM [5] was 2.4 h and the half-life at 25 µM [6] was 17 h. It also gave a half-life at 50 µM [7] of 14 h, an IC50 (CAPAN-1 [8]) of 206 nM and an AUC(0-inf) [9] of 151 µg·h/mL. The Drug uptake [10] was “Active”, the IC50 (MIA PaCa-2) was 205 nM and the inhibition (HCT-116 [11]) was “Dose-dependent effect”. For the same compound, the Vd [12] was 0.1 L/kg, the Drug uptake [13] was “Active” and the half-life [14] was 1.51 h. For the same compound, the IC50 (A549 [15]) was 324 nM, the inhibition (Heat shock protein HSP90 [16]) was “Active” and the Activity (HCT-116 [17]) was “Dose-dependent effect”. The Drug uptake (Heat shock protein HSP90 [18]) was “Tde”, the inhibition (Heat shock protein HSP90 [19]) was “Dose-dependent effect” and the IC50 (L02) was 7890 nM. The inhibition (Heat shock protein HSP90 [20]) was “Active”, the fold change (FC) [21] was 1.6 to 1.9 and the half-life at 25 µM [22] was greater than 24 h. The inhibition [23] was “Dose-dependent effect”, the clearance [24] was 5.51 mL/min/kg and the half-life at 50 µM [25] was greater than 24 h. For the same compound, the Activity [26] was less than 20%, the remaining at 1 h, 1 µM [27] was 75% and the IC50 [28] was 70 nM. For the same compound, the IC50 (HCT-116 [29]) was 83 nM, the Activity (CAPAN-1 [30]) was “Dose-dependent effect” and the inhibition (Heat shock protein HSP90 [31]) was “Dose-dependent effect”. For the same compound, the Activity (A549 [32]) was “Dose-dependent effect”, the inhibition [33] was “Dose-dependent effect” and the CLH [34] was 5.3 mL/min/kg. The Drug uptake [35] was “Active”.
`CC1(C)CC(=O)c2c(C(F)(F)F)nn(-c3ccc(C(N)=O)c(N[C@H]4CC[C@H](OC(=O)CN)CC4)c3)c2C1` [SNX 5422] showed an IC50 [28] of 38 nM.
